Results as given in patent publication US20240246952A1, “SMALL MOLECULE MODULATORS OF GLUCOCEREBROSIDASE ACTIVITY AND USES THEREOF” (Vanqua Bio, Inc., priority 2021, published 2024).
pEC50: −log10 of the molar value.

Target: T1, GCase (Homo sapiens, UniProt P04062)
T1 construct: endogenous in cells; host or cells: HeLa cells
T1 sequence (P04062 40-536): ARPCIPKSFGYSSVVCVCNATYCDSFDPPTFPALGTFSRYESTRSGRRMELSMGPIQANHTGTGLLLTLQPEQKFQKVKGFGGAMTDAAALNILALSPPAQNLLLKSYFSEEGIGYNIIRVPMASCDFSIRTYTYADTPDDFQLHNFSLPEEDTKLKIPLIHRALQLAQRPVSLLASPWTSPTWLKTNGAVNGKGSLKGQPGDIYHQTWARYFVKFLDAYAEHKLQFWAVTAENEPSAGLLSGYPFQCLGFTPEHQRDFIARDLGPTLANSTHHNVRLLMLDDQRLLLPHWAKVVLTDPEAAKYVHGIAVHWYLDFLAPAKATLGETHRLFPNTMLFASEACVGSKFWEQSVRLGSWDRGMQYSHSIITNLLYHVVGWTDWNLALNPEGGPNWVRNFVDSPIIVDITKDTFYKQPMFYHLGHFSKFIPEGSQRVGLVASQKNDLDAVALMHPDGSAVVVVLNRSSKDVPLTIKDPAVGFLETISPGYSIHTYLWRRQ
Experiment: activation of GCase in a live cell PFB assay in HELA cells
Format: cell-based
Procedure: Exemplary compounds were evaluated for activation of GCase in a live cell PFB assay in HELA cells (essentially as described in Ysselstein et al., “LRRK2 kinase activity regulates lysosomal glucocerebrosidase in neurons derived from Parkinson's disease patients” Nature Communications (2019) 10:5570).

Structure (SMILES)	pEC50
FC(F)Cn1ncc2ncc(N3CCCC(c4nnc(-c5ccc(C(F)(F)F)nc5)s4)C3)nc21 (centres unmarked) [Compound 21, 2-(1-(1-(2,2-Difluoroethyl)-1H-pyrazolo[3,4-b]pyrazin-6-yl)piperidin-3-yl)-5-(6-(trifluoromethyl)pyridin-3-yl)-1,3,4-thiadiazole]	> 5.00
FC(F)(F)Oc1ccccc1-c1nnc(C2(F)CCCN(c3cncc(-c4nncs4)n3)C2)s1 (centres unmarked) [Compound 29, 2-(1-(6-(1,3,4-Thiadiazol-2-yl)pyrazin-2-yl)-3-fluoropiperidin-3-yl)-5-(2-(trifluoromethoxy)phenyl)-1,3,4-thiadiazole]	4.30 to 5.00
O=C(c1ccc2ccn(C3COC3)c2c1)N1CCCC(F)(c2nnc(-c3cccc(C(F)(F)F)n3)s2)C1 (centres unmarked) [Compound 26, (3-Fluoro-3-(5-(6-(trifluoromethyl)pyridin-2-yl)-1,3,4-thiadiazol-2-yl)piperidin-1-yl)(1-(oxetan-3-yl)-1H-indol-6-yl)methanone]	4.30 to 5.00
FC(F)(F)c1cccc(-c2nnc(C3(F)CCCN(c4cnc5cnn(CC6COC6)c5n4)C3)s2)n1 (centres unmarked) [Compound 27, 2-(3-Fluoro-1-(1-(oxetan-3-ylmethyl)-1H-pyrazolo[3,4-b]pyrazin-6-yl)piperidin-3-yl)-5-(6-(trifluoromethyl)pyridin-2-yl)-1,3,4-thiadiazole]	> 5.00
Cc1nnc(C2CCCN(c3ncc4ccccc4n3)C2)s1 (centres unmarked) [Compound 16, 2-methyl-5-(1-(quinazolin-2-yl)piperidin-3-yl)-1,3,4-thiadiazole]	< 4.00
c1ccc(-c2nnc(C3CCCN(c4cncc(-c5nncs5)n4)C3)s2)cc1 (centres unmarked) [Compound 1, 2-[3-(5-phenyl-1,3,4-thiadiazol-2-yl)piperidin-1-yl]-6-(1,3,4-thiadiazol-2-yl)pyrazine]	4.30 to 5.00
CCn1ncc2ncc(N3CCCC(c4nnc(-c5ccccc5)s4)C3)nc21 (centres unmarked) [Compound 15, 2-(1-(1-Ethyl-1H-pyrazolo[3,4-b]pyrazin-6-yl)piperidin-3-yl)-5-phenyl-1,3,4-thiadiazole]	4.00 to 4.30
Fc1ccccc1-c1nnc(C2CCCN(c3cnc4ccccc4n3)C2)s1 (centres unmarked) [Compound 4, 2-(2-fluorophenyl)-5-(1-(quinoxalin-2-yl)piperidin-3-yl)-1,3,4-thiadiazole]	4.30 to 5.00
FC(F)Cn1ncc2ncc(N3CCCC(c4nnc(-c5ccnc(C(F)(F)F)c5)s4)C3)nc21 (centres unmarked) [Compound 5, 2-(1-(1-(2,2-difluoroethyl)-1H-pyrazolo[3,4-b]pyrazin-6-yl)piperidin-3-yl)-5-(2-(trifluoromethyl)pyridin-4-yl)-1,3,4-thiadiazole]	> 5.00
FC(F)Cn1ncc2ncc(N3CCCC(c4nnc(-c5cccc(C(F)(F)F)n5)s4)C3)nc21 (centres unmarked) [Compound 2, 2-(5-{1-[1-(2,2-difluoroethyl)pyrazolo[3,4-b]pyrazin-6-yl]piperidin-3-yl}-1,3,4-thiadiazol-2-yl)-6-(trifluoromethyl)pyridine]	4.30 to 5.00
FC(F)(F)c1cccc(-c2nnc(C3(F)CCCN(c4cnc5cnn(C6COC6)c5n4)C3)s2)n1 (centres unmarked) [Compound 24, 2-(3-fluoro-1-(1-(oxetan-3-yl)-1H-pyrazolo[3,4-b]pyrazin-6-yl)piperidin-3-yl)-5-(6-(trifluoromethyl)pyridin-2-yl)-1,3,4-thiadiazole]	< 4.00
FC(F)(F)c1cccc(-c2nnc(C3(F)CCCN(c4cncc(-c5nncs5)n4)C3)s2)n1 (centres unmarked) [Compound 8, 2-(3-Fluoro-3-{5-[6-(trifluoromethyl)pyridin-2-yl]-1,3,4-thiadiazol-2-yl}piperidin-1-yl)-6-(1,3,4-thiadiazol-2-yl)pyrazine]	4.30 to 5.00
O=C(c1ccc2cc[nH]c2c1)N1CCCC(c2nnc(-c3ccccc3)s2)C1 (centres unmarked) [Compound 12, (1H-Indol-6-yl)(3-(5-phenyl-1,3,4-thiadiazol-2-yl)piperidin-1-yl)methanone]	4.30 to 5.00
c1ccc(-c2nnc(C3CCCN(c4ncc5ccccc5n4)C3)s2)cc1 (centres unmarked) [Compound 14, 2-Phenyl-5-(1-(quinazolin-2-yl)piperidin-3-yl)-1,3,4-thiadiazole]	4.30 to 5.00
Fc1ccccc1-c1nnc(C2CCCN(c3ncc4ccccc4n3)C2)s1 (centres unmarked) [Compound 10, 2-(2-Fluorophenyl)-5-(1-(quinazolin-2-yl)piperidin-3-yl)-1,3,4-thiadiazole]	4.30 to 5.00
FC(F)(F)Cn1ncc2ncc(N3CCCC(F)(c4nnc(-c5cccc(C(F)(F)F)n5)s4)C3)nc21 (centres unmarked) [Compound 6, 2-(3-Fluoro-1-(1-(2,2,2-trifluoroethyl)-1H-pyrazolo[3,4-b]pyrazin-6-yl)piperidin-3-yl)-5-(6-(trifluoromethyl)pyridin-2-yl)-1,3,4-thiadiazole]	4.30 to 5.00
O=C(c1ccc2ccn(CC3COC3)c2c1)N1CCCC(F)(c2nnc(-c3cccc(C(F)(F)F)n3)s2)C1 (centres unmarked) [Compound 25, (3-Fluoro-3-(5-(6-(trifluoromethyl)pyridin-2-yl)-1,3,4-thiadiazol-2-yl)piperidin-1-yl)(1-(oxetan-3-ylmethyl)-1H-indol-6-yl)methanone]	4.30 to 5.00
COc1ncncc1-c1nnc(C2CCCN(c3cnc4ccccc4n3)C2)s1 (centres unmarked) [Compound 18, 2-(4-Methoxypyrimidin-5-yl)-5-(1-(quinoxalin-2-yl)piperidin-3-yl)-1,3,4-thiadiazole]	4.30 to 5.00
FC(F)Cn1ncc2ncc(N3CCCC(c4nnc(-c5cccnc5C(F)(F)F)s4)C3)nc21 (centres unmarked) [Compound 7, 2-(1-(1-(2,2-Difluoroethyl)-1H-pyrazolo[3,4-b]pyrazin-6-yl)piperidin-3-yl)-5-(2-(trifluoromethyl)pyridin-3-yl)-1,3,4-thiadiazole]	4.30 to 5.00
CCn1ccc2ncc(N3CCCC(c4nnc(-c5ccccc5)s4)C3)nc21 (centres unmarked) [Compound 3, 2-(1-(5-ethyl-5H-pyrrolo[2,3-b]pyrazin-3-yl)piperidin-3-yl)-5-phenyl-1,3,4-thiadiazole]	4.30 to 5.00
FC(F)(F)c1cccc(-c2nnc(C3(F)CCCN(c4cnc5ccccc5n4)C3)s2)n1 (centres unmarked) [Compound 13, 2-(3-Fluoro-3-{5-[6-(trifluoromethyl)pyridin-2-yl]-1,3,4-thiadiazol-2-yl}piperidin-1-yl)quinoxaline]	4.30 to 5.00
O=C(c1ccc2cc[nH]c2c1)N1CCCC(c2nnc(-c3cccnc3C(F)(F)F)s2)C1 (centres unmarked) [Compound 17, (1H-Indol-6-yl)(3-(5-(2-(trifluoromethyl)pyridin-3-yl)-1,3,4-thiadiazol-2-yl)piperidin-1-yl)methanone]	4.30 to 5.00
FC(F)(F)Oc1ccccc1-c1nnc(C2CCCN(c3cncc(-c4nncs4)n3)C2)s1 (centres unmarked) [Compound 22, 2-(1-(6-(1,3,4-thiadiazol-2-yl)pyrazin-2-yl)piperidin-3-yl)-5-(2-(trifluoromethoxy)phenyl)-1,3,4-thiadiazole]	> 5.00
c1ccc(-c2nnc(C3CCCN(c4cnc5ccccc5n4)C3)s2)cc1 (centres unmarked) [Compound 11, 2-Phenyl-5-(1-(quinoxalin-2-yl)piperidin-3-yl)-1,3,4-thiadiazole]	4.30 to 5.00
FC(F)Cn1ncc2ncc(N3C[C@@H]4[C@H](C3)[C@H]4c3nnc(-c4ccccc4)s3)nc21 [Compound 28, 2-((1R,5S,6R)-3-(1-(2,2-Difluoroethyl)-1H-pyrazolo[3,4-b]pyrazin-6-yl)-3-azabicyclo[3.1.0]hexan-6-yl)-5-phenyl-1,3,4-thiadiazole]	4.30 to 5.00
FC(F)Cn1ncc2ncc(N3CCCC(c4nnc(-c5ccccc5)s4)C3)nc21 (centres unmarked) [Compound 19, 2-(1-(1-(2,2-Difluoroethyl)-1H-pyrazolo[3,4-b]pyrazin-6-yl)piperidin-3-yl)-5-phenyl-1,3,4-thiadiazole]	> 5.00
FC(F)Cn1ncc2ncc(N3C[C@@H]4[C@H](C3)[C@H]4c3nnc(-c4cccnc4C(F)(F)F)s3)nc21 [Compound 23, 2-((1R,5S,6r)-3-(1-(2,2-Difluoroethyl)-1H-pyrazolo[3,4-b]pyrazin-6-yl)-3-azabicyclo[3.1.0]hexan-6-yl)-5-(2-(trifluoromethyl)pyridin-3-yl)-1,3,4-thiadiazole]	< 4.00
O=C(c1ccc2cc[nH]c2c1)N1CCCC(c2nnc(-c3ccccc3C(F)(F)F)s2)C1 (centres unmarked) [Compound 9, (1H-Indol-6-yl)(3-(5-(2-(trifluoromethyl)phenyl)-1,3,4-thiadiazol-2-yl)piperidin-1-yl)methanone]	4.30 to 5.00
CCn1cnc2ncc(N3CCCC(c4nnc(-c5ccccc5)s4)C3)nc21 (centres unmarked) [Compound 20, 2-(1-(1-Ethyl-1H-imidazo[4,5-b]pyrazin-6-yl)piperidin-3-yl)-5-phenyl-1,3,4-thiadiazole]	> 5.00
